Literature values, collected in patent US20140128469A1, “[…]-BUTYL BUMETANIDE” (CONCERT PHARMACEUTICALS INC., priority 2011, published 2014).

Assays:
[1] = biological target: T1, Na+K+2Cl— co-transporter (NKCC2) (Homo sapiens, UniProt Q13621)
T1 sequence (Q13621 1-1099): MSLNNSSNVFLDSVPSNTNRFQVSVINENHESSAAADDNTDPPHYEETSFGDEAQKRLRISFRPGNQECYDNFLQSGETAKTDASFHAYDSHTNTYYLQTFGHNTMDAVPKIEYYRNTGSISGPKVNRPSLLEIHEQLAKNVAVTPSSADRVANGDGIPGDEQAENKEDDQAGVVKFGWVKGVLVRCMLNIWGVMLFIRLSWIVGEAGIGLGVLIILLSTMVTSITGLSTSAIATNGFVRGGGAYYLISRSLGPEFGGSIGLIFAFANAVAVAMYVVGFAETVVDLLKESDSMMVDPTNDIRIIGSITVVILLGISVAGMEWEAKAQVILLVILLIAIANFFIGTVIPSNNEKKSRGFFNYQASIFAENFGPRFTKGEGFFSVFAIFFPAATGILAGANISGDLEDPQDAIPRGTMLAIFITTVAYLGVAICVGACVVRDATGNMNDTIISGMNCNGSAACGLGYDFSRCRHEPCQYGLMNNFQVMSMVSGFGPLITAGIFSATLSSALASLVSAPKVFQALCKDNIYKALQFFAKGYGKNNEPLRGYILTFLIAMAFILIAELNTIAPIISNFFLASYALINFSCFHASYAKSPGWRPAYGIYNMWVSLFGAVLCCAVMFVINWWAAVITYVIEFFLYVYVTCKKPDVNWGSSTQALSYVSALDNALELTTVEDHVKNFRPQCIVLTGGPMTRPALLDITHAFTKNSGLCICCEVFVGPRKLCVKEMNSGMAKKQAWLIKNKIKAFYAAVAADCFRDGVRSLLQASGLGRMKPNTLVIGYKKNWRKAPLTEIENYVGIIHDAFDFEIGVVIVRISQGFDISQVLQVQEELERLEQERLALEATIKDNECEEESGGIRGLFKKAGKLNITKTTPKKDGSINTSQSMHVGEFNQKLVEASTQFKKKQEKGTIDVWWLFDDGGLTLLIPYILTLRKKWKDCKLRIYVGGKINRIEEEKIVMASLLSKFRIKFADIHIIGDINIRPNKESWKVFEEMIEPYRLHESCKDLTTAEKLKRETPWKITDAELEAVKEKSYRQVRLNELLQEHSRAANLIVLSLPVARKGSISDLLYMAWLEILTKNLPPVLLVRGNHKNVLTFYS

models of migraine = details: in vivo
[2] = preclinical toxicology studies, see WO 2010/085352
[3] = preclinical models
[4] = biological target: T2, Na+K+2Cl— co-transporter (NKCC1) (Homo sapiens, UniProt P55011)
T2 sequence (P55011 1-1212): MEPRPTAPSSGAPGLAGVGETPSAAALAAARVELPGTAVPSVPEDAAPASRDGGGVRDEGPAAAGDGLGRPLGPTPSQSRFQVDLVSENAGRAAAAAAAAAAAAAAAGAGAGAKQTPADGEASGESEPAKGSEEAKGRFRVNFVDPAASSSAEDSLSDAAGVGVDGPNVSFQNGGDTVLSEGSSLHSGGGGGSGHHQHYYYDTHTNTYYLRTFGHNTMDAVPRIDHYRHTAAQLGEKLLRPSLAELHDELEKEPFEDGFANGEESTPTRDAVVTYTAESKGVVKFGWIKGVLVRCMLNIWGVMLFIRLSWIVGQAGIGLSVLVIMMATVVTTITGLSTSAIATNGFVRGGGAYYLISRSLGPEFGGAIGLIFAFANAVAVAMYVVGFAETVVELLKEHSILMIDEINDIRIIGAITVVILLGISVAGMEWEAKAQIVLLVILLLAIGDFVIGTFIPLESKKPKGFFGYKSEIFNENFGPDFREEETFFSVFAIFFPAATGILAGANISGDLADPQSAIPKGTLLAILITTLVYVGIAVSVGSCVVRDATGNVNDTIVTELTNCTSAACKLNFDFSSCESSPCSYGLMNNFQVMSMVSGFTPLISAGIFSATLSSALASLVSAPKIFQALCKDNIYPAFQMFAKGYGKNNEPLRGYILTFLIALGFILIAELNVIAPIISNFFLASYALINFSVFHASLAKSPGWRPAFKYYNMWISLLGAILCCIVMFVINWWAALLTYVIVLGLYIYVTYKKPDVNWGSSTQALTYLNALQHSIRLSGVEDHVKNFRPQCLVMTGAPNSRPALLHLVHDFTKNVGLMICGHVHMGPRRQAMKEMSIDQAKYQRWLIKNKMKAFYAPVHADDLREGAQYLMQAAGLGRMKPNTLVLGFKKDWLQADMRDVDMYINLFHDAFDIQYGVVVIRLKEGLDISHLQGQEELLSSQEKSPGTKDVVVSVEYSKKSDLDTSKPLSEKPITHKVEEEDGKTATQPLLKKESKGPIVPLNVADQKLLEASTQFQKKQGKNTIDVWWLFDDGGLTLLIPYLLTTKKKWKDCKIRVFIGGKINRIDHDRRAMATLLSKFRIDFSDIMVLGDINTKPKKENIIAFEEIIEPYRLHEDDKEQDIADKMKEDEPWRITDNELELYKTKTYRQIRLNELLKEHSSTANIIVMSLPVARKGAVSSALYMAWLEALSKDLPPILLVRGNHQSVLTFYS

[5] = system: models of neuropathic and nociceptive pain; details: in vivo

## CCCCN(CCCC)c1cc(C(=O)O)cc(S(N)(=O)=O)c1Oc1ccccc1 [N-butyl bumetanide]
[1]
  action on NKCC2: does not act on
Models of migraine
  efficacy in models of migraine: effective
Models of epilepsy; epilepsy models resistant to currently-marketed anti-epileptic drugs
  amelioration of seizures: effective in ameliorating seizures
Models of epilepsy; in vivo
  efficacy in models of epilepsy: effective
[2]
  therapeutic safety margin: large therapeutic safety margin
[3]
  diuresis: does not cause diuresis
GABAA
  GABAA modulation: subtype-selective GABAA modulatory actions
[4]
  action on NKCC1: does not act on
[5]
  efficacy in models of neuropathic and nociceptive pain: effective
